Measured values as given in ChEMBL document CHEMBL1201862, “PubChem BioAssay data set” (2004).
Calls of active or inactive are those of the source.

Columns and labels:
[1] = biological target: T1, Polyadenylate-binding protein 1 (Homo sapiens, UniProt P11940); test: PABP1 MLLE–PAM2 interaction inhibitors, dose response, miRNA deadenylation inhibitor project, biochemical, fluorescence polarization, Cy5-PAM2 peptide, secondary (AID 602260); type: functional; details: read-out: IC50_Mean
[2] = biological target: T1, Polyadenylate-binding protein 1; test: PABP1 MLLE–PAM2 binding inhibitor potency, dose response, biochemical, fluorescence polarization, FITC-PAM2 peptide (AID 602259); type: functional; details: read-out: IC50_Mean
[3] = biological target: Mitogen-activated protein kinase 10 (Homo sapiens, UniProt P53779); test: Dose response biochemical screening assay for inhibitors of c-Jun N-Terminal Kinase 3 (JNK3). [Related pubchem assays: 746 ]
[4] = Luminescence Cell-Based Dose Response HTS to Identify Inhibitors of 5'UTR Stem-Loop Driven Prion Protein mRNA Translation in H4 Neuroglioblastoma Cells. [Related pubchem assays: 1827 (Project Summary), 1813 (Primary HTS)]; type: functional
[5] = inhibitors of SNCA 5'UTR-driven reporter translation, confirmation, H4 neuroglioma cells, luminescence (AID 1988); type: functional, cell-based
[6] = biological target: T2, Microphthalmia-associated transcription factor (Homo sapiens, UniProt O75030); test: TRPM1 promoter luciferase signal decrease, dose response, MITF inhibitor project, cell-based, SK-MEL-5, cherry-picked, set 3 (AID 493073); type: functional
T2 sequence (O75030 whole entry): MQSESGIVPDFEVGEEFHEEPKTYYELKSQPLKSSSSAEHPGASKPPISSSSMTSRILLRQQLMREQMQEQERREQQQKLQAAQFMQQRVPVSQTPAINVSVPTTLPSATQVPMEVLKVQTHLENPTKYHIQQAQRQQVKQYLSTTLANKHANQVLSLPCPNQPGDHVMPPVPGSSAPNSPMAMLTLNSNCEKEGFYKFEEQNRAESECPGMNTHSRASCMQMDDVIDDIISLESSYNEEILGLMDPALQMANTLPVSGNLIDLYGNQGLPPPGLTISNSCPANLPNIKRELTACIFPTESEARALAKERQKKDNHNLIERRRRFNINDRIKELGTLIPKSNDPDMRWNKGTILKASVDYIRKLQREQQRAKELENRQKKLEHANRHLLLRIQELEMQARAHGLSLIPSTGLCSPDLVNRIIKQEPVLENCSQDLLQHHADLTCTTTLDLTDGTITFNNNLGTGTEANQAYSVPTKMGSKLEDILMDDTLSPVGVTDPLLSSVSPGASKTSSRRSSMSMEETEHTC

[7] = A549 cell cytotoxicity, dose response, cytotoxicity control, plate reader, cherry-pick, antagonist series (AID 743412); type: functional, cell-based
[8] = LGR2 antagonists, dose response, cell-based, HEK293, CRE-luciferase reporter, cherry pick, set 2 (AID 743343); type: functional;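 further: transfected cells were stimulated with diluted bursicon conditioned medium after compound addition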
[9] = MC4R antagonists, dose response, counter-screen for LGR2 antagonist project, cell-based, plate reader, cherry pick (AID 743444); type: functional;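 further: transfected HEK 293 cells stimulated with alpha-MSH peptide; potency of inhibitors of the alpha-MSH evoked signal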
[10] = HepG2 cell cytotoxicity, dose response, cytotoxicity control, plate reader, cherry-pick, antagonist series (AID 743416); type: functional, cell-based
[11] = HEK293 cell cytotoxicity, dose response, cytotoxicity control, plate reader, cherry-picked samples (AID 743446); type: functional, cell-based
Fatty acid synthase [12] = biological target: T3, Fatty acid synthase (Homo sapiens, UniProt P49327); test: FAS thioesterase domain inhibitors, dose response, biochemical, endpoint fluorescence intensity, uHTS hits (AID 624327); type: functional;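 further: fluorescence from hydrolysis of an O-methyl fluorescein acyl ester substrate by the enzyme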
Fatty acid synthase [13] = biological target: T3, Fatty acid synthase; test: FAS thioesterase domain inhibitors, dose response, biochemical, kinetic fluorescence intensity (AID 624326); type: functional;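 further: rate of fluorescence rise from hydrolysis of a fluorogenic O-methyl fluorescein ester substrate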
[14] = cytotoxicity in HPDE-C7 cells, cell-based, fluorescence, HTS (AID 430); type: functional; details: Homo sapiens
[15] = cytotoxicity in KRAS-transformed pancreatic duct cells, primary screen, cell-based, fluorescence, HTS (AID 431); type: functional; details: Homo sapiens;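 further: cell line used: HPDE-C7K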
[16] = HEp-2 cell cytotoxicity, dose response, cytotoxicity control for RSV inhibitor project, HTS (AID 2410); type: functional; details: human respiratory syncytial virus
[17] = inhibitors of intracellular T. cruzi replication, confirmation, NIH3T3 host cells, beta-gal luminescence (AID 2044); type: functional, cell-based;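 further: intracellular parasites grown in NIH/3T3 mouse fibroblasts as host cells; luminescent beta-galactosidase reporter signal from transgenic T. cruzi replicating inside host cells; inhibitors lower the luminescence signal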
[18] = cytotoxicity toward NIH3T3 fibroblasts, dose response, counter-screen, cell-based, ATP luminescence, mouse fibroblasts (AID 2010); type: functional;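 further: cells exposed to compound for about 90 hours before reading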
[19] = biological target: T4, Heat shock factor protein 1 (Mus musculus, UniProt P38532); test: HSF1 potentiators in luciferase reporter cells, confirmation, cell-based, NIH3T3, luminescence, dose retest (AID 435004); type: functional;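 further: stress induced by proteasome inhibitor MG132 added 30 min after compound; luciferase reporter driven by HSF1 response element in NIH3T3 cells; actives raise luminescence as potentiators of the MG132 stress response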
T4 sequence (P38532 whole entry): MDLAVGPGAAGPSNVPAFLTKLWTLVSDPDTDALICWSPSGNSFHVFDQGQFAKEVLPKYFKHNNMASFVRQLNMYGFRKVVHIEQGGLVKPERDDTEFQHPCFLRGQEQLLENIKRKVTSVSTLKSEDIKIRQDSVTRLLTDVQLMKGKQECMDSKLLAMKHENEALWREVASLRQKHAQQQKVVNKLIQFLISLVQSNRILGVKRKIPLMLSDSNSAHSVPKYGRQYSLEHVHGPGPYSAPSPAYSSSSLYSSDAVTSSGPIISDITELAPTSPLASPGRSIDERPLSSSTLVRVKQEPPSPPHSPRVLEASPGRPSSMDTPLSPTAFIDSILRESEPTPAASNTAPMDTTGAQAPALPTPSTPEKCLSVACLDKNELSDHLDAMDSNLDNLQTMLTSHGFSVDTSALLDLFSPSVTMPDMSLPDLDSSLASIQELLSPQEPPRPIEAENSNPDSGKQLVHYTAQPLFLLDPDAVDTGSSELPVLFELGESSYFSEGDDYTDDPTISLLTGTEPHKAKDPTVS

[20] = inhibitors of firefly luciferase expression or activity, dose response, H4 neuroglioma cells, luminescence (AID 1990); type: functional, cell-based
[21] = biological target: Luciferin 4-monooxygenase (Photinus pyralis, UniProt P08659); test: firefly luciferase enzyme inhibitors, dose response, biochemical, luminescence (AID 1891)
[22] = Luminescence Cell-Based Dose Confirmation HTS to Identify Inhibitors of Platelet Dense Granule Release. [Related pubchem assays: 1663 (Primary HTS), 1678 (Summary of Project)]; type: functional
[23] = Luminescence Cell-Based Dose Confirmation HTS to Identify Activators of 5'UTR Stem-Loop Driven Alpha-Synuclein mRNA Translation in H4 Neuroglioblastoma Cells. [Related pubchem assays: 1829 (Project Summary), 1814 (Primary HTS)]; type: functional
[24] = Luminescence Cell-Based Dose Response HTS to Identify Activators of Luciferase Translation or Activity in H4 […] Cells. [Related pubchem assays: 1829 (Project Summary), 1814 (Primary HTS)]; type: functional
H4 = test: Luminescence Cell-Based Dose Response HTS to Identify Activators of 5'UTR Stem-Loop Driven Prion Protein mRNA Translation in H4 Neuroglioblastoma Cells. [Related pubchem assays: 1829 (Project Summary), 1814 (Primary HTS)]; type: functional; details: Homo sapiens
[25] = biological target: T5, Histone-lysine N-methyltransferase NSD2 (Homo sapiens, UniProt O96028); type: biochemical
T5 sequence (O96028 whole entry): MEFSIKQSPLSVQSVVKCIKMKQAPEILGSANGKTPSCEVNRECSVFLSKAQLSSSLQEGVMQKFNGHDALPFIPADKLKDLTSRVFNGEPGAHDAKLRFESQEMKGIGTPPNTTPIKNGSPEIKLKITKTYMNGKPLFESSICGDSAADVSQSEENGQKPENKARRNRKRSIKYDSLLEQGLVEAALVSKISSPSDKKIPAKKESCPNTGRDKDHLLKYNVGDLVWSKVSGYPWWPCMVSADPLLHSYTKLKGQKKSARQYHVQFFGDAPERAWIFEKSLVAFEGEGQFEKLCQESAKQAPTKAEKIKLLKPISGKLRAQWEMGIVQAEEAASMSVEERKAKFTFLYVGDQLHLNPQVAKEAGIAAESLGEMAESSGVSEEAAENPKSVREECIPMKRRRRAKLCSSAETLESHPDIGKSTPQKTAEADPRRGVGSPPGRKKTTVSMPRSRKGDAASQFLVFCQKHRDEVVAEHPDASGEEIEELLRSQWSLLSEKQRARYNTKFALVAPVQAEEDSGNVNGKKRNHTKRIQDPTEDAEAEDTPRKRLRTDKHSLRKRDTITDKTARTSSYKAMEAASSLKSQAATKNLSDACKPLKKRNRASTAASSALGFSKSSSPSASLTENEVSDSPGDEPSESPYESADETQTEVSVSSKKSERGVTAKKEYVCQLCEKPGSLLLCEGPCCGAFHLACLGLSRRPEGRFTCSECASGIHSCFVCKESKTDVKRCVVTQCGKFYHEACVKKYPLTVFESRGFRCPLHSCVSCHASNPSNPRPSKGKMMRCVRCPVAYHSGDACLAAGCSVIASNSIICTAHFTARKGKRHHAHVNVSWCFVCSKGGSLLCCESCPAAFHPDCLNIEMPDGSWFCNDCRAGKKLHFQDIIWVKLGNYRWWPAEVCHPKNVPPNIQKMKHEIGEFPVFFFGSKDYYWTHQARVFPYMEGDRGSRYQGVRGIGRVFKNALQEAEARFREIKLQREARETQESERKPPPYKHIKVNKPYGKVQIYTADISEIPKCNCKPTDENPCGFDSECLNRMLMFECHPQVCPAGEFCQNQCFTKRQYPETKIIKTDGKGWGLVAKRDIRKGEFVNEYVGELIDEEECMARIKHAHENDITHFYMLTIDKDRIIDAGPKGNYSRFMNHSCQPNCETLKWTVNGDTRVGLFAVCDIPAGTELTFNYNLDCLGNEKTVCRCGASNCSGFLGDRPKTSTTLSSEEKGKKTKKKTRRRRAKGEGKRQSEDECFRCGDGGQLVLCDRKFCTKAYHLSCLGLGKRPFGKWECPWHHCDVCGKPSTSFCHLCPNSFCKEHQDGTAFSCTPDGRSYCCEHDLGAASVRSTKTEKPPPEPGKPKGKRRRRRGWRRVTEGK

T3 sequence (P49327 whole entry, the tested form may be a part): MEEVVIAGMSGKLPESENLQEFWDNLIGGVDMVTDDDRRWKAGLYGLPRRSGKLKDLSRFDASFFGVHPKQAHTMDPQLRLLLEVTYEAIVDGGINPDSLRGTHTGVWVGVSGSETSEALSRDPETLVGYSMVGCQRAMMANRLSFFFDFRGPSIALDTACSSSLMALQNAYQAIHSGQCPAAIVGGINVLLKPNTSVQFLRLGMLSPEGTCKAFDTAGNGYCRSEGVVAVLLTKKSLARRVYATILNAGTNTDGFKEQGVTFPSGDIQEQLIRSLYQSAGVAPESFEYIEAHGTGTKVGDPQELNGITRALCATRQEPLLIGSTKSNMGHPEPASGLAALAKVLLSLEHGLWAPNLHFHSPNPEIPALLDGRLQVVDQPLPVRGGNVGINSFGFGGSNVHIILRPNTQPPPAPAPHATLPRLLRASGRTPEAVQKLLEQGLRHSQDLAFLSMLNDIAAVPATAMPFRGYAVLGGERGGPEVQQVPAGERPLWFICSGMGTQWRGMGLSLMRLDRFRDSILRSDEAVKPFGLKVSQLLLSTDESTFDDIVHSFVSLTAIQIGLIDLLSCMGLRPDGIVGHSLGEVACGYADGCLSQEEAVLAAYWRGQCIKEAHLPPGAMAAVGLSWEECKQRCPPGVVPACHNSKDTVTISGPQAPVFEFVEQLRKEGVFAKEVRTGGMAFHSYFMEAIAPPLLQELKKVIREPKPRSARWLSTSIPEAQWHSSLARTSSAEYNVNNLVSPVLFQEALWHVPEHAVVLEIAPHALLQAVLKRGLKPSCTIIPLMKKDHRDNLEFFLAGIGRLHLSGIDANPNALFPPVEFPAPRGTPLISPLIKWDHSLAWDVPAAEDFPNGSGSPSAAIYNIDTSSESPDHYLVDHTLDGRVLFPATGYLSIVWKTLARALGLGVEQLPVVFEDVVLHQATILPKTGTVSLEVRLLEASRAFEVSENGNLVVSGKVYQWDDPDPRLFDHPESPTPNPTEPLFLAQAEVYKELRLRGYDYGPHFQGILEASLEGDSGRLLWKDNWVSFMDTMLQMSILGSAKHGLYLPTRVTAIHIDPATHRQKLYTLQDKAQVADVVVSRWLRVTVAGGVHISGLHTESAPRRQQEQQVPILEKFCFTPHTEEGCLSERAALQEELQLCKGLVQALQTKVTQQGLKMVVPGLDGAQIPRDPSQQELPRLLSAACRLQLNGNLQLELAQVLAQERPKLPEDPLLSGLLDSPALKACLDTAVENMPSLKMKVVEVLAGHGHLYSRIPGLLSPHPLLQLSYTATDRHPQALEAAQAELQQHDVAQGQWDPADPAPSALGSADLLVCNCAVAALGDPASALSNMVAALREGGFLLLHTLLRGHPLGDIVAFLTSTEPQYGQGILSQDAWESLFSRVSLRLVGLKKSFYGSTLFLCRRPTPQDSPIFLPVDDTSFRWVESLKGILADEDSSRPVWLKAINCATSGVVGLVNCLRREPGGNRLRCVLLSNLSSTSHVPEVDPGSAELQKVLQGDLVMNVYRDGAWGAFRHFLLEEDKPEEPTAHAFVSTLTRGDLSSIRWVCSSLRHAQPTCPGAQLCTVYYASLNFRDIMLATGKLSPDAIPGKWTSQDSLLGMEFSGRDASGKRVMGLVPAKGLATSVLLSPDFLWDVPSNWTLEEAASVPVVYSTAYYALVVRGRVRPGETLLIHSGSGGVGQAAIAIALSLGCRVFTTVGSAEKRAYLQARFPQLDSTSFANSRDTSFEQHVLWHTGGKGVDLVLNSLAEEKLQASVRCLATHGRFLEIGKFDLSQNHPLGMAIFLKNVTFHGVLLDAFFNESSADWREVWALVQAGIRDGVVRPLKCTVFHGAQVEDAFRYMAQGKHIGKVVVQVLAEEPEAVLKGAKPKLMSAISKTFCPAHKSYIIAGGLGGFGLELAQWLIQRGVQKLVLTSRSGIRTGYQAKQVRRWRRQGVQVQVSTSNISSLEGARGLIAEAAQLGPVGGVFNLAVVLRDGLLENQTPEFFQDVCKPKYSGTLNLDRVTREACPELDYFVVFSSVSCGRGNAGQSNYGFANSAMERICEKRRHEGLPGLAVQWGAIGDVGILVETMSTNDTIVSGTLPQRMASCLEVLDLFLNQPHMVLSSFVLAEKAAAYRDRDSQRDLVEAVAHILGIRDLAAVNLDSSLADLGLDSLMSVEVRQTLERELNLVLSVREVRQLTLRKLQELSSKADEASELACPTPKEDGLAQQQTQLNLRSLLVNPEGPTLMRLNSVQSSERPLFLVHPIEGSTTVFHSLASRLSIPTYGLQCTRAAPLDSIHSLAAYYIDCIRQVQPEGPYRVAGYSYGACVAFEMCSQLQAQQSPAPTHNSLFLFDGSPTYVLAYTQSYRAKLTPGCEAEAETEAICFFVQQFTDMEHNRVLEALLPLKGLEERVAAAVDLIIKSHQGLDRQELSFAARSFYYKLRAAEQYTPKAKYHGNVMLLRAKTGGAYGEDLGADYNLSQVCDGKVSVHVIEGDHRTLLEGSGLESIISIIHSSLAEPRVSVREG
T1 sequence (P11940 whole entry): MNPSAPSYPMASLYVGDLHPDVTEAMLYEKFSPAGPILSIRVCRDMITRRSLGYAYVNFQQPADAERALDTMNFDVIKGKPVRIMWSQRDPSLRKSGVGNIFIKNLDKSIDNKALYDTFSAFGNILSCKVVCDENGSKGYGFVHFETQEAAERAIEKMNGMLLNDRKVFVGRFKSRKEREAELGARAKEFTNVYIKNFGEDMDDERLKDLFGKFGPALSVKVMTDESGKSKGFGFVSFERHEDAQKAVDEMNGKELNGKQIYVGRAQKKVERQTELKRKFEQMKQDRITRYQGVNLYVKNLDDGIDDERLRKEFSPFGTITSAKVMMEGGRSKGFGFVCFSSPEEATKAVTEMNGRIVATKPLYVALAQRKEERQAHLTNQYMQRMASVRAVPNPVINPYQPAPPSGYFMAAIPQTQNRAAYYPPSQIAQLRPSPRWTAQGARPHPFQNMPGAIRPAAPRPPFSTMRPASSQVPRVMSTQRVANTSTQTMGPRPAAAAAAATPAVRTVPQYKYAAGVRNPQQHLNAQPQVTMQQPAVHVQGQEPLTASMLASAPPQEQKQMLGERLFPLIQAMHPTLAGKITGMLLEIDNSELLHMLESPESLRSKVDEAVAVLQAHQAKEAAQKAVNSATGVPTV
Mitogen-activated protein kinase 10, sequence (P53779 whole entry): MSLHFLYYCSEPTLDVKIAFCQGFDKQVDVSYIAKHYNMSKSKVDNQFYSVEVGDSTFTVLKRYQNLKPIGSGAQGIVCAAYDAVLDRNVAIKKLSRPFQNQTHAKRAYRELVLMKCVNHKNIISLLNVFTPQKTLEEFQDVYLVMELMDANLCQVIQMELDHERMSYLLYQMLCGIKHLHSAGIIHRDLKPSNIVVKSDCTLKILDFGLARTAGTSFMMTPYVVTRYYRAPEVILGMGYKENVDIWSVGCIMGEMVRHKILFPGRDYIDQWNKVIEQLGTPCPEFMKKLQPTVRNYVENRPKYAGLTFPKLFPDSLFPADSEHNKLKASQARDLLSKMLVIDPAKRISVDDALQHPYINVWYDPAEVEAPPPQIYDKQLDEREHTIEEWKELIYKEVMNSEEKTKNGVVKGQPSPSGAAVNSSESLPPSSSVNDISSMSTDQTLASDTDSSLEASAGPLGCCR
Luciferin 4-monooxygenase, sequence (P08659 whole entry): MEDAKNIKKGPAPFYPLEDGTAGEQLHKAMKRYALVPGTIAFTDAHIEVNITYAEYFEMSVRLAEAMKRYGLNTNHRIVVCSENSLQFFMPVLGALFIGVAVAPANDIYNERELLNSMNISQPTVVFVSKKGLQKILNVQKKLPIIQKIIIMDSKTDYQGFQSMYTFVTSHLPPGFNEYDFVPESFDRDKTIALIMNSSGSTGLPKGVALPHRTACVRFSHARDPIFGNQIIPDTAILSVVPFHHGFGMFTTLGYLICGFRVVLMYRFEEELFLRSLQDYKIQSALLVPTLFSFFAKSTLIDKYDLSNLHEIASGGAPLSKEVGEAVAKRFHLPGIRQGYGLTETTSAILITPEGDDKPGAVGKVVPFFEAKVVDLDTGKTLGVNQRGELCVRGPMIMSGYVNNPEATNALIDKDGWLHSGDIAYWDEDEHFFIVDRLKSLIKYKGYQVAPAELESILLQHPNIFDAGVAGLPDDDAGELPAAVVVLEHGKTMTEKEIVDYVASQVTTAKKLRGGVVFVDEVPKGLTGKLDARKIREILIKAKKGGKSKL

COc1cccc(-n2c(=S)sc3c(=O)n(-c4ccccc4OC)c(=S)[nH]c32)c1
IC50 [1]: > 66 µM (inactive) | IC50 [2]: > 66 µM (inactive)

CCCN1C(=O)SC(CC(=O)Nc2ccc(C)cc2)C1=O (stereo not drawn)
IC50 [1]: > 66 µM (inactive) | IC50 [2]: > 66 µM (inactive)

CCOC(=O)c1cnc2ccc(Cl)cc2c1N1CCN(C)CC1
IC50 [3]: 25.9 µM (not active)

Cc1ccc(-n2[nH]c(=O)c(-c3ccccn3)c2C)cc1
EC50 [4]: 0.571 µM (active) | EC50 [5]: 2 µM (active) | AC50 [6]: 3.23 µM (active) | AC50 [7]: > 52 µM (inactive) | AC50 [8]: 1.61 µM (active) | AC50 [9]: 2.08 µM (active)

Cc1nc(NCc2ccco2)c(C#N)c2c1COC(C)(C)C2
IC50 [3]: 37.5 µM (not active)

CC1=C(C(=O)O)N2C(=O)C(NC(=O)c3ccc(F)cc3)C2SC1 (stereo not drawn)
IC50 [1]: > 66 µM (inactive) | IC50 [2]: > 66 µM (inactive)

O=C(Nc1nnc(C2CC2)s1)c1ccccn1
AC50 [7]: 7.92 µM (active) | AC50 [10]: 8.23 µM (active) | AC50 [8]: 18.3 µM (active) | AC50 [9]: 17.1 µM (active) | AC50 [11]: 19 µM (active)

CN(Cc1ccc(C(C)(C)C)cc1)C(=O)Cc1ccc(S(=O)(=O)N2CCOCC2)s1
IC50 (Fatty acid synthase [12]): 0.424 µM (active) | IC50 (Fatty acid synthase [13]): 0.291 µM (active)

CN1CCN(CC(=O)Nc2sc3c(c2C#N)CCC(C(C)(C)C)C3)CC1 (stereo not drawn)
EC50 [14]: > 20 µM (not active) | EC50 [15]: > 20 µM (not active)

CC(=O)c1ccc(OCCCC(=O)NC2=NCCS2)cc1
IC50 [1]: > 66 µM (inactive) | IC50 [2]: > 66 µM (inactive)

c1ccc(-c2nc(NCc3cccnc3)c3oc4ccccc4c3n2)cc1
CC50 [16]: 28.9 µM (active) | EC50 [14]: 14.2 µM (active) | EC50 [17]: 2.22 µM (active) | EC50 [15]: 15.8 µM (active) | EC50 [18]: > 60 µM (not active) | EC50 [19]: > 260 µM (inactive)

COc1ccc(N2CCN(C(=O)CSc3ccc([N+](=O)[O-])cc3)CC2)cc1
IC50 (Fatty acid synthase [12]): 21.1 µM (inactive) | IC50 (Fatty acid synthase [13]): 12.9 µM (active)

O=C(Nc1cccc(Cl)c1)c1cc([N+](=O)[O-])ccc1N1CCN(CCO)CC1
IC50 (Fatty acid synthase [12]): 6.61 µM (active) | IC50 (Fatty acid synthase [13]): 2.72 µM (active)

COc1ccc(C(=O)Nc2ccc3ccccc3c2)cc1
EC50 [20]: 9.12 µM (inconclusive) | EC50 [4]: 10.4 µM (inconclusive) | EC50 [5]: 6.82 µM (active) | AC50 [10]: 45.6 µM (active) | AC50 [8]: 5.78 µM (active) | AC50 [9]: 8.43 µM (active)

CC(=O)c1c2c3c(c(Br)ccc3n(C)c1=O)C(=O)c1ccccc1-2
EC50 [21]: > 112 µM (not active) | EC50 [22]: > 112 µM (not active) | IC50 [1]: 45.8 µM (inactive) | IC50 [2]: 37.5 µM (inactive)

CC(C)(CCC(=S)N1CCOCC1)C1CCCCC1
IC50 [1]: > 66 µM (inactive) | IC50 [2]: > 66 µM (inactive)

COc1ccc(/C=C(\NC(=O)c2ccc([N+](=O)[O-])cc2)C(=O)NCCCN2CCOCC2)cc1
IC50 (Fatty acid synthase [12]): 4.51 µM (active) | IC50 (Fatty acid synthase [13]): 2.95 µM (active)

N#CC1=C(N)NC(SCc2ccc(F)cc2)=C(C#N)C12CCCCC2
EC50 [23]: > 120 µM (not active) | EC50 [24]: > 120 µM (not active) | EC50 (H4): > 120 µM (not active) | EC50 [14]: 10.4 µM (active) | EC50 [15]: 9.03 µM (active)

CCNCCC(CCC(C)C)c1ccc2c(c1)OCO2 (stereo not drawn)
AC50 [25]: > 20 µM (inactive)

COc1cc(C(=O)COC(=O)c2cc([N+](=O)[O-])ccc2N2CCOCC2)ccc1OC(F)F
IC50 (Fatty acid synthase [12]): 10.3 µM (active) | IC50 (Fatty acid synthase [13]): 10.1 µM (active)

CCN(CC)CCCNc1cc(C)c(C#N)c2nc3ccccc3n12
AC50 [25]: > 20 µM (inactive)
